The test system of experiment [1] is MCF7 cells with forced expression of TFF3. Nature of the experiment: MCF7 cells with forced expression of TFF3: western blot, cell viability, caspase 3/7 (FIG. 5). The note with it: MCF7 cells with forced expression of TFF3, 5 μM. Type of experiment: cell-based, human. The procedure:
(A) Western blot analysis was used to assess the levels of pSTAT3, STAT3, BCL2, and CCND1 protein in MCF7 cells with forced expression of TFF3 after treatment with compound 43 (5 μM) and Stattic (2 μM) was used to treat cells. Depletion of STAT3 expression was achieved using transient-transfection of small interfering (si)-RNA (Invitrogen, Singapore) directed to STAT3 transcript as previously described in Pandey V et al., Breast Cancer Res. 2014; 16(5):429. Anti-TFF3 polyclonal antibody was used as previously described (ibid). Soluble whole cell extracts were run on a SDS-PAGE and immunoblotted as previously described (ibid). β-ACTIN was used as input control for cell lysate. The sizes of detected protein bands in kDa are shown on the right side (B) Cell viability and (C) caspase 3/7 activities in MCF7 cells with forced expression of TFF3 after treatment with compound 43 (5 μM) and Stattic (2 μM) was used to treat cells. […] Evaluated using ApoTox-Glo™ Triplex Assay Kit, Promega (Singapore) according to manufacturer's instructions. Cell viability fluorescence is measured at 400Ex/505Em, while apoptosis (caspase 3/7 activities) is determined with the luminescence measurement. […] Statistical significance was assessed by using an unpaired two-tailed Student's t test (P<0.05 was considered as significant) using GraphPad Prism5. […]
A general note: A western blot detects proteins with antibodies after separation by electrophoresis.

The test system of another experiment is MDA-MB-361. Nature of the experiment: AlamarBlue cell viability assay, MDA-MB-361. Format: cell-based. The note with it: Homo sapiens, Mammary. An excerpt:
(A) Inhibitory concentration 50% (IC50) values for compound 43 in the MC cell lines are tabulated, using an AlamarBlue™ cell viability assay as previously described in Pandey V et al., Breast Cancer Res. 2014; 16(5):429. (B) Measured dose-dependent manner effect of compound 43 on the viability of MC cells (left-side, TFF3-high and right, TFF3-low) using AlamarBlue™ viability assay as previously described (ibid). (C) Apoptotic cell death of mammary carcinoma cell lines measured after treatment with 10 μM compound 43 using flow cytometry analysis at 24 hour as described previously in Keerthy H K et al., PloS one. 2014; 9(9):e107118. Annexin V-FITC staining is indicated on the X-axis and PI staining on the Y-axis. […] Acquisition of Annexin V and PI data were represented as percentage (%) in each quadrant. Note: CM, conditioned media; MCF10A and MCF12A, non-transformed immortalized-mammary epithelial cell line. Points are mean of triplicate experiments; bars, ±SD. Statistical significance was assessed by using an unpaired two-tailed Student's t test (P<0.05 was considered as significant) using GraphPad Prism5. […]
(§1) In table 9 IC50 values of compound 43 compound library in several cancer cell lines are tabulated, using an AlamarBlue® cell viability assay as previously described in Pandey V et al., Breast Cancer Res. 2014; 16(5):429. Statistical analysis was assessed by using GraphPad Prism5. […]
A general note: Resazurin is reduced to fluorescent resorufin, in cell work by metabolically active cells.

The subject of experiment [2] is high-TFF3 expression MC cells. Nature of the experiment: ApoTox-Glo Triplex Assay and western blot (FIG. 2). Type of experiment: cell-based, human. The settings on record: 10 μM. The procedure: Effect of compound 43 (10 μM) on cell viability of high-TFF3 MC cell lines. (A) Cell viability (B) caspase 3/7 activities and (C) cytotoxicity was evaluated using ApoTox-Glo™ Triplex Assay Kit Promega (Singapore) according to manufacturer's instructions. Cell viability fluorescence is measured at 400Ex/505Em, cytotoxicity fluorescence is measured at 485Ex/520Em, while apoptosis (caspase 3/7 activities) is determined by luminescence measurement. (D) Western blot analysis was used to assess the level of various protein markers and protein activity in high-TFF3 expression MC cells after treatment with compound 43. Soluble whole cell extracts were run on a SDS-PAGE and immunoblotted as previously described in Pandey V et al., Breast Cancer Res. 2014; 16(5):429. β-ACTIN (ACTB) was used as input control for cell lysate. The sizes of detected protein bands in kDa are shown on the left side. Statistical significance was assessed by using an unpaired two-tailed Student's t test (P<0.05 was considered as significant) using GraphPad Prism5. Columns are mean of triplicate experiments; bars, ±SD. **P<0.001, *P<0.05.

The next experiment has as its system HCC4006. Briefly: AlamarBlue cell viability assay, HCC4006. Format: cell-based. The settings on record: Homo sapiens, Lung. The procedure: (§2) The human immortalized mammary epithelial cell lines, MCF10A, and MCF12A; and immortalized hepatocellular epithelial cell line, LO2 were obtained from the American Type Culture Collection (ATCC, Rockville, Md.) and were cultured as per ATCC propagation instructions. MC cell lines, MCF7, T47D, BT474, BT20, MDA-MB-361, MDA-MB-436, MDA-MB-468, and MDA-MB-231; endometrial carcinoma cell lines, Ishikawa, ECC1, RL95-2 and AN3; hepatocellular carcinoma cell lines, Hep3B, H2P, and H2M; colon carcinoma cell lines, DLD-1, and Caco-2; and prostate carcinoma cell lines, PC3, LNCaP, and DU145 were obtained from the American Type Culture Collection (ATCC, Rockville, Md.). Pancreatic carcinoma cell lines, AsPC-1 and BxPC-3; Lung carcinoma cell lines, HCC-827, NCI-H1975, HCC-4006, PC-14, and NCI-H1299; and Thyroid carcinoma cell lines HTH83, CAL62, T238, and OGK-M were obtained from Prof. H. Phillip Koeffler's laboratory at The Cancer Science Institute of Singapore, National University of Singapore (NUS). Gastric carcinoma cell lines, AGS, MKN-28, MKN-45, and A2-528 were obtained from Prof. […]
as §1

The subject of the next experiment is DU145. Briefly: AlamarBlue cell viability assay, DU145. Type of experiment: cell-based. The note with it: Homo sapiens, DU-145, Prostate. The procedure:
as §2, §1

This passage reports TFF3-stimulated effects, IC50 and intrinsic apoptosis results from patent US20200147039A1, “COMPOUNDS USEFUL IN INHIBITING HUMAN TREFOIL FACTOR 3” (NATIONAL UNIVERSITY OF SINGAPORE, priority 2017, published 2020).

One may read the IC50 as the midpoint of a concentration-inhibition curve. Read a high IC50 as weaker potency.

As for `Cc1cc(-c2ccc(C3C(C#N)=C(N)Oc4c3c(=O)oc3ccccc43)cc2)cnc1F` (centres unmarked) [Compound 43, 2-Amino-4-(4-(6-fluoro-5-methylpyridin-3-yl)phenyl)-5-oxo-4H,5H-pyrano[3,2-c]chromene-3-carbonitrile], the TFF3-stimulated effects entry in experiment [1] is on record as “reverted”. Further, the IC50 in the experiment with MDA-MB-361 was 1.61 µM; with HCC4006 it was 3.92 µM; in the experiment with DU145, 1.91 µM. In experiment [2], the intrinsic apoptosis entry was “stimulates intrinsic apoptosis”.
